ChEMBL document CHEMBL3853266, “A complex game of hide and seek: the search for new antifungals” (Medchemcomm, 2016)
Values after ≈ are worked out from the molar mass of the structure shown.

Assay: Antifungal activity against Candida albicans clinical isolate by serial twofold dilution microtitre plate method
Format: functional

MIC: 1 µg/mL (≈ 2.42 µM)
Structure (SMILES): COc1ccc2oc(=O)sc2c1C(=O)/C=C/c1ccc(OCCCN(C)C)cc1
